e = 2'-O-(2-methoxyethyl) (MOE); d = 2'-deoxy (DNA)
How the values were obtained:
[1] = system: BALB/c mice; assay: Tolerability in BALB/c mice: liver, kidney and spleen weights (Example 8); assay type: in vivo, mouse
Method: The mice were sacrificed 2 days after the last administration and liver, spleen and kidney weights were measured. Plasma transaminase levels were also evaluated.
The weights of liver, kidney and spleen of the mice were measured after 4 weeks and liver weights are presented in Table 10 as a percentage change compared to the corresponding weights in the PBS control. The percentage changes in kidney and spleen weight in the treated mice compared to the PBS control were negligible and are not shown.

[2] = system: human TGF-beta1 mRNA; assay: Dose-dependent antisense inhibition of human TGF-beta1 in HuVEC cells, Lipofectamine 2000, 0.9375-30 nM (Example 3); assay type: cell-based; settings: Lipofectamine 2000
Outline: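 HuVEC cells, 5,000/well, were transfected with Lipofectamine 2000 and 0.9375-30 nM antisense oligonucleotide for 4 h, then recovered about 16 h. TGF-beta1 mRNA was quantified by real-time PCR (primer probe set RTS 2980), normalised to RIBOGREEN total RNA, and expressed as percent inhibition versus untreated cells.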

[3] = system: murine TGF-beta1; assay: Inhibition of murine TGF-beta1 expression (data not shown); design: species or system mouse

“414036 (antisense GTGTCCTTAAATACAGCCCC; sugars from the 5' end e2 d13 e5, backbone and methylation of C not given here) [compound 414036]” was tested. Which “Liver % Weight change relative to PBS control” value ([1]; 25 mg/kg twice a week for 4 weeks) did it give?
Its value is “+17%”.

What about the “Liver % Weight change relative to PBS control” value ([1]; 50 mg/kg twice a week for 4 weeks) of the same substance?
The value was “+35%”.

What about the “increase in liver weight” value ([1]; 25 or 50 mg/kg twice a week for 4 weeks, vs PBS control) of the same substance?
The value was ≤ 35%.

And the “percent inhibition of TGF-beta1” value ([2]; 0.9375 nM)?
The value was 56%.

What about the “percent inhibition of TGF-beta1” value ([2]; 1.875 nM) of the same substance?
Its value is 75%.

And the “percent inhibition of TGF-beta1” value ([2]; 3.75 nM)?
Its value is 86%.

What about the “percent inhibition of TGF-beta1” value ([2]; 7.5 nM) of the same substance?
The value was 93%.

What about the “percent inhibition of TGF-beta1” value ([2]; 15 nM) of the same substance?
Its value is 95%.

And the “percent inhibition of TGF-beta1” value ([2]; 30 nM)?
The value was 93%.

And the “murine TGF-beta1 expression” value [3]?
The value was “inhibits”.

From US20110172296A1, “MODULATION OF TRANSFORMING GROWTH FACTOR-BETA 1 EXPRESSION” (priority 2010, published 2011)
